Our source for the MIC and Ratio values is ChEMBL document CHEMBL4808247 (Bioorg Med Chem, 2021).

In brackets after ≈: the same amount, converted by molar mass.

Holding throughout (type): functional
For test [1], the system named is Klebsiella pneumoniae. The test is described as follows: Antibacterial activity against Klebsiella pneumoniae JMI:211 producing class A beta-lactamase, KPC-2 assessed as reduction in microbial growth incubated for 16 to 20 hrs by broth microdilution method. The settings on record: time 16-20 hrs.
Test [2] concerns Escherichia coli. Put plainly: Antibacterial activity against Escherichia coli BL21(DE3) transfected with pET9a vector harboring class A beta lactamase, CTX-M-15 incubated for 16 to 20 hrs by broth microdilution method. The settings on record: time 16-20 hrs.
Test [3] can be described thus: Ratio of MIC for antibacterial activity against Escherichia coli BL21(DE3) transfected with pET9a vector harboring class C beta lactamase AmpC to MIC for antibacterial activity against Escherichia coli BL21(DE3).
Test [4] in a line: Ratio of MIC for antibacterial activity against Escherichia coli BL21(DE3) transfected with pET9a vector harboring class B beta lactamase NDM-1 to MIC for antibacterial activity against Escherichia coli BL21(DE3).
Test [5] has as its system Escherichia coli. Put plainly: Antibacterial activity against Escherichia coli BL21(DE3) transfected with pET9a vector harboring class C beta lactamase, AmpC incubated for 16 to 20 hrs by broth microdilution method. The settings on record: time 16-20 hrs. On the technique in general: Broth dilution looks for growth in wells or tubes with falling amounts of substance.
Test [6] concerns Escherichia coli. The test is described as follows: Antibacterial activity against Escherichia coli BL21(DE3) transfected with pET9a vector harboring class D beta lactamase, OXA-48 incubated for 16 to 20 hrs by broth microdilution method. The settings on record: time 16-20 hrs.
Test [7] concerns Escherichia coli. Put plainly: Antibacterial activity against Escherichia coli BL21(DE3) transfected with pET9a empty vector incubated for 16 to 20 hrs by broth microdilution method. The settings on record: time 16-20 hrs.
A short description of test [8]: Ratio of MIC for antibacterial activity against Escherichia coli BL21(DE3) transfected with pET9a vector harboring class A beta lactamase, CTX-M-15 to MIC for antibacterial activity against Escherichia coli BL21(DE3).
The subject of test [9] is Escherichia coli. Put plainly: Antibacterial activity against Escherichia coli BL21(DE3) transfected with pET9a vector harboring class B beta lactamase, NDM-1 incubated for 16 to 20 hrs by broth microdilution method. The settings on record: time 16-20 hrs.
For test [10], the system named is Escherichia coli. The test is described as follows: Antibacterial activity against Escherichia coli SR34100 producing class A beta-lactamase, CTX-M-15 assessed as reduction in microbial growth incubated for 16 to 20 hrs by broth microdilution method. The settings on record: time 16-20 hrs.
Test [11] relates to Escherichia coli. The test is described as follows: Antibacterial activity against Escherichia coli NIHJ JC-2 assessed as reduction in microbial growth incubated for 16 to 20 hrs by broth microdilution method. The settings on record: time 16-20 hrs.
A short description of test [12]: Ratio of MIC for antibacterial activity against Escherichia coli BL21(DE3) transfected with pET9a vector harboring class D beta lactamase, OXA-48 to MIC for antibacterial activity against Escherichia coli BL21(DE3).
The test system of test [13] is Enterobacter cloacae. Put plainly: Antibacterial activity against Enterobacter cloacae SR36276 producing class C beta-lactamase, AmpC assessed as reduction in microbial growth incubated for 16 to 20 hrs by broth microdilution method. The settings on record: time 16-20 hrs.
Test [14] concerns Klebsiella pneumoniae. The test is described as follows: Antibacterial activity against Klebsiella pneumoniae PLE producing class D beta-lactamase, OXA-48 assessed as reduction in microbial growth incubated for 16 to 20 hrs by broth microdilution method. The settings on record: time 16-20 hrs.
Test [15] has as its system Enterobacter cloacae. Put plainly: Antibacterial activity against Enterobacter cloacae IR32 producing class B beta-lactamase, NDM1 assessed as reduction in microbial growth incubated for 16 to 20 hrs by broth microdilution method. The settings on record: time 16-20 hrs.

What is called MIC is the lowest concentration found to suppress growth. In the case of `CC(C)(O/N=C(\C(=O)N[C@@H]1C(=O)N2[C@@H]1SC[C@@H]1CC(=O)O[C@@]12C(=O)O)c1csc(N)n1)C(=O)O` (stereo in doubt), the MIC worked out at 1 mg/L in test [1]; 0.5 mg/L (≈ 0.974 µM) in [2]; 1 mg/L (≈ 1.95 µM) in [5]; 0.5 mg/L (≈ 0.974 µM) in [6]; 0.5 mg/L (≈ 0.974 µM) in test [7]; 0.5 mg/L (≈ 0.974 µM) in [9]. The MIC in test [10] was 1 mg/L; in test [11] it was 0.5 mg/L; in test [13], 16 mg/L; in test [14] it was 2 mg/L; in test [15], 0.5 mg/L. Besides, the Ratio in test [3], in [4], in test [8] and in test [12] was less than 2 each time.
